The target of experiment [1] is T1, purified recombinant 11β-HSD1 (Homo sapiens, UniProt P28845).
T1 construct: made in house; host or cells: E. coli
The experiment can be described thus: Biological Test Example 1: inhibition of purified 11β-HSD1, Scintillation Proximity Assay. The format is biochemical. The settings on record: purified recombinant 11β-HSD1 (expressed in E. coli), SPA; read-out: Biological Test Example 1 IC50 Range. On the procedure:
The inhibition of purified 11β-HSD1 by compounds of Formula I is measured using a Scintillation Proximity Assay. […] The reaction is then incubated for 90 minutes, and stopped by adding 50 μl of SPA bead mix (18-β-glycyrrhetinic acid, 10 μM final, 5 mg/ml protein A coated YSi SPA beads, and 1 ug/ml α-cortisol antibody (East Coast Biologics)). The plate is shaken for 120 minutes, and the radioactivity corresponding to ^3H cortisol is measured on a Wallac Microbeta.

Experiment [2] addresses T2, human 11β-HSD1 (Homo sapiens, UniProt P28845). The settings on record: at 100 nm.
Procedure: (§1) All reactions are carried out at room temperature in 96 well clear flexible PET Microbeta plates (PerkinElmer). […] The reaction is stopped by adding 50 μl of the SPA beads suspension containing 10 μM 18β-glycyrrhetinic acid, 5 mg/ml protein A coated YSi SPA beads (GE Healthcare) and 3.3 μg/ml of anti-cortisol antibody (East Coast Biologics) in Superblock buffer (Bio-Rad). The plates are then shaken for 120 minutes at room temperature, and the SPA signal corresponding to [^3H]cortisol is measured on a Microbeta plate reader.
Experiment [3] deals with T2, human 11β-HSD1. In words: biochemical. The settings on record: Biological Test Example 2 IC50 Range, microsomes from CHO cells overexpressing human 11β-HSD1, SPA.
Procedure: as §1

Where only a bound is given, the exact number is not on record here.

T1 sequence (P28845 whole entry, species assumed): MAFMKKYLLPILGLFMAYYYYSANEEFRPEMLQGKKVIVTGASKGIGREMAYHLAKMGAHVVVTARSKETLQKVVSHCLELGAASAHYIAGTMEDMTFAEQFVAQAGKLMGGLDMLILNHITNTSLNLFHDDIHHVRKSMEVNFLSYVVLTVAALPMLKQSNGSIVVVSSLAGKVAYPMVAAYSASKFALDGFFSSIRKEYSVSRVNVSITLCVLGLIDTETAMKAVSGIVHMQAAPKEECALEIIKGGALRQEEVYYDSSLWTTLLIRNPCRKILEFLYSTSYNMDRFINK
T2 sequence (P28845 whole entry): as the sequence (P28845 whole entry, species assumed) above

`CC(C)(C)OC(=O)NC1CN(C(=O)NC2C3CC4CC(C3)CC2C4)C1` (centres unmarked) [Example 51, tert-butyl 1-(2-adamantylcarbamoyl)azetidin-3-ylcarbamate]: in experiment [1], the IC50 was less than 100 nM.

As for `CNC(=O)C12CC3CC(C1)C(OC(=O)N1CC[C@@H](Nc4ccc(C#N)cn4)C1)C(C3)C2` (single isomer, unassigned) [Example 114 Isomer 1], in experiment [2], the “Biological Test Example 2 Average % inhibition at 100 nm” value was 11.8%. The molecule further returned an IC50 in experiment [3] of more than 100 nM. On to `N#Cc1ccc(N[C@@H]2CCN(C(=O)OC3C4CC5CC3CC(C(=O)NC3CCCCC3)(C5)C4)C2)nc1` (single isomer, unassigned) [Example 117 Isomer 1], for which the “Biological Test Example 2 Average % inhibition at 100 nm” value in experiment [2] came to 17.85%. The molecule further yielded an IC50 in experiment [3] of more than 100 nM. As to `CC(C)OC(=O)N[C@@H]1CCN(C(=O)OC2C3CC4CC2CC(C(N)=O)(C4)C3)C1` (single isomer, unassigned) [Example 24 Isomer 1], the “Biological Test Example 2 Average % inhibition at 100 nm” value in experiment [2] amounted to 2.0%. For the same molecule, the half-maximal inhibitory concentration (IC50) in experiment [3] was more than 100 nM.

On to `NC(=O)C12CC3CC(C1)C(OC(=O)N1CC[C@@H](NC(=O)OCc4ccccc4)C1)C(C3)C2` (single isomer, unassigned) [Example 25 Isomer 1], for which, in experiment [2], the “Biological Test Example 2 Average % inhibition at 100 nm” value came out at 45.6%. In experiment [3], this molecule came in with an IC50 of more than 100 nM. With `CC(C)(C)OC(=O)N[C@H]1CCN(C(=O)NC2C3CC4CC(C3)CC2C4)C1` (stereo partly drawn) [Example 47, (S)-tert-butyl 1-(2-adamantylcarbamoyl)pyrrolidin-3-ylcarbamate], the IC50 in experiment [1] fell in the range of 100 to 1000 nM. On the same count and under the same terms, as for `CC(C)(C)OC(=O)NCC1CN(C(=O)NC2C3CC4CC(C3)CC2C4)C1` (centres unmarked) [Example 52, tert-butyl (1-(2-adamantylcarbamoyl)azetidin-3-yl)methylcarbamate], the figure is less than 100 nM; as for `CC(C)(C)OC(=O)NC[C@@H]1CCN(C(=O)NC2C3CC4CC(C3)CC2C4)C1` (stereo partly drawn) [Example 54, (S)-tert-butyl (1-(2-adamantylcarbamoyl)pyrrolidin-3-yl)methylcarbamate], less than 100 nM. On the same count and under the same terms, as for `CC(C)(C)OC(=O)N[C@@H]1CCN(C(=O)NC2C3CC4CC(C3)CC2C4)C1` (stereo partly drawn) [Example 46, (R)-tert-butyl 1-(2-adamantylcarbamoyl)pyrrolidin-3-ylcarbamate], the figure is less than 100 nM. As to `CC1(NC(=O)OC(C)(C)C)CCN(C(=O)OC2C3CC4CC2CC(C(N)=O)(C4)C3)C1` (single isomer, unassigned) [Example 22 Isomer 2.2, (trans-1-carbamoyl-4-adamantyl) 3-(tert-butoxycarbonylamino)-3-methylpyrrolidine-1-carboxylate], the “Biological Test Example 2 Average % inhibition at 100 nm” value in experiment [2] turned out to be 82.7%. Further, the IC50 in experiment [3] was less than 100 nM. For `CC(C)(C)OC(=O)NC1CCN(C(=O)NC2C3CC4CC(C3)CC2C4)CC1` (centres unmarked) [Example 53, tert-butyl 1-(2-adamantylcarbamoyl)piperidin-4-ylcarbamate], the IC50 in experiment [1] was 100 to 1000 nM. With `CNC(=O)C12CC3CC(C1)C(OC(=O)N1CC[C@@H](Nc4ccc(C#N)cn4)C1)C(C3)C2` (single isomer, unassigned) [Example 114 Isomer 2], the “Biological Test Example 2 Average % inhibition at 100 nm” value in experiment [2] was 58.4%. This molecule returned an IC50 in experiment [3] of less than 100 nM.

In the case of `CC(C)(C)OC(=O)N[C@@H]1CCCN(C(=O)OC2C3CC4CC(C3)CC2C4)C1` (stereo partly drawn) [Example 8, (3R)-(2-adamantyl) 3-(tert-butoxycarbonylamino)piperidine-1-carboxylate], the IC50 in experiment [1] is less than 100 nM. Still for that read-out and setting: in the case of `CC(C)(C)OC(=O)N1CCC2CN(C(=O)OC3C4CC5CC(C4)CC3C5)CC21` (racemic) [Example 11, (±)-1-tert-butyl 5-(2-adamantyl) hexahydropyrrolo[3,4-b]pyrrole-1,5-dicarboxylate] it was less than 100 nM. In the case of `NC(=O)C12CC3CC(C1)C(OC(=O)N1CC[C@@H](NC(=O)OCc4ccccc4)C1)C(C3)C2` (single isomer, unassigned) [Example 25 Isomer 2], in experiment [2], the “Biological Test Example 2 Average % inhibition at 100 nm” value came to 91.3%. Besides, the IC50 in experiment [3] was less than 100 nM. For `CC(C)COC(=O)NC1CCN(C(=O)OC2C3CC4CC2CC(C(N)=O)(C4)C3)C1` (single isomer, unassigned) [Example 18 Isomer 2, (trans-1-carbamoyl-4-adamantyl) (3R-(isobutoxycarbonylamino)pyrrolidine-1-carboxylate)], in that order: 95.0% and less than 100 nM. On the same counts, the results for `CC(C)(C)OC(=O)NCC1CN(C(=O)OC2C3CC4CC2CC(C(N)=O)(C4)C3)C1` (single isomer, unassigned) [Example 17 Isomer 1, (cis-1-carbamoyl-4-adamantyl) 3-((tert-butoxycarbonylamino)methyl)azetidine-1-carboxylate] are 22.1% and more than 100 nM. With `CC1(NC(=O)OC(C)(C)C)CCN(C(=O)OC2C3CC4CC2CC(C(N)=O)(C4)C3)C1` (single isomer, unassigned) [Example 22 Isomer 1, (cis-1-carbamoyl-4-adamantyl) 3-(tert-butoxycarbonylamino)-3-methylpyrrolidine-1-carboxylate], in experiment [2], the “Biological Test Example 2 Average % inhibition at 100 nm” value is listed as 15.7%. For the same molecule, the IC50 in experiment [3] is more than 100 nM. On the same counts, the results for `CC(C)(C)OC(=O)N1CCCC12CCN(C(=O)OC1C3CC4CC1CC(C(N)=O)(C4)C3)C2` (single isomer, unassigned) [Example 30 Isomer 2, 1-tert-butyl 7-(trans-1-carbamoyl-4-adamantyl) 1,7-diazaspiro[4.4]nonane-1,7-dicarboxylate] are 91.3% and less than 100 nM. For `CC(C)OC(=O)N[C@@H]1CCN(C(=O)OC2C3CC4CC2CC(C(N)=O)(C4)C3)C1` (single isomer, unassigned) [Example 24 Isomer 2], in that order: 87.4% and less than 100 nM. On the same counts, the results for `CC(C)(C)OC(=O)N1CCC2CN(C(=O)OC3C4CC5CC3CC(C(N)=O)(C5)C4)CC21` (single isomer, unassigned) [Example 23 Isomer 2, 1-tert-butyl 5-(trans-1-carbamoyl-4-adamantyl)hexahydropyrrolo[3,4-b]pyrrole-1,5-dicarboxylate] are 94.4% and less than 100 nM. With `CN(C(=O)OC(C)(C)C)C1CCN(C(=O)NC2C3CC4CC(C3)CC2C4)C1` (centres unmarked) [Example 55, tert-butyl 1-(2-adamantylcarbamoyl)pyrrolidin-3-yl(methyl)carbamate], in experiment [1], the IC50 was less than 100 nM. Same read-out and setting: as for `CC(C)(C)OC(=O)NCC1CN(C(=O)OC2C3CC4CC(C3)CC2C4)C1` (centres unmarked) [Example 1, 2-adamantyl 3-((tert-butoxycarbonylamino)methyl)azetidine-1-carboxylate], the figure is less than 100 nM.

With `CC1(NC(=O)OC(C)(C)C)CCN(C(=O)OC2C3CC4CC2CC(C(N)=O)(C4)C3)C1` (single isomer, unassigned) [Example 22 Isomer 2.1, (trans-1-carbamoyl-4-adamantyl) 3-(tert-butoxycarbonylamino)-3-methylpyrrolidine-1-carboxylate], in experiment [2], the “Biological Test Example 2 Average % inhibition at 100 nm” value is 88.5%. In experiment [3], this molecule gave an IC50 of less than 100 nM. As to `CC(C)(C)OC(=O)N[C@@H]1CCCN(C(=O)NC2C3CC4CC(C3)CC2C4)C1` (stereo partly drawn) [Example 56, (R)-tert-butyl 1-(2-adamantylcarbamoyl)piperidin-3-ylcarbamate], the IC50 in experiment [1] was less than 100 nM.

With `CC(C)(C)OC(=O)NC1(Cc2ccccc2)CCN(C(=O)OC2C3CC4CC2CC(C(N)=O)(C4)C3)C1` (single isomer, unassigned) [Example 29 Isomer 2.2, (trans-1-carbamoyl-4-adamantyl) 3-benzyl-3-(tert-butoxycarbonylamino)pyrrolidine-1-carboxylate], the “Biological Test Example 2 Average % inhibition at 100 nm” value in experiment [2] came out at 89.3%. The IC50 in experiment [3] is less than 100 nM. With `CC(C)(C)OC(=O)NCC1CN(C(=O)OC2C3CC4CC2CC(C(N)=O)(C4)C3)C1` (single isomer, unassigned) [Example 17 Isomer 2, (trans-1-carbamoyl-4-adamantyl) 3-((tert-butoxycarbonylamino)methyl)azetidine-1-carboxylate], in experiment [2], the “Biological Test Example 2 Average % inhibition at 100 nm” value came out at 92.8%. Also, in experiment [3], the IC50 is less than 100 nM. For the molecule `CC(C)(C)OC(=O)N[C@H]1CCCN(C(=O)NC2C3CC4CC(C3)CC2C4)C1` (stereo partly drawn) [Example 57, (S)-tert-butyl 1-(2-adamantylcarbamoyl)piperidin-3-ylcarbamate], the IC50 in experiment [1] was less than 100 nM. With `COC(=O)N[C@@H]1CCN(C(=O)NC2C3CC4CC(C3)CC2C4)C1` (stereo partly drawn) [Example 48, (R)-methyl 1-(2-adamantylcarbamoyl)pyrrolidin-3-ylcarbamate], the IC50 in experiment [1] lay in the range of 100 to 1000 nM.

With `N#Cc1ccc(N[C@@H]2CCN(C(=O)OC3C4CC5CC3CC(C(=O)NC3CCCCC3)(C5)C4)C2)nc1` (single isomer, unassigned) [Example 117 Isomer 2], the “Biological Test Example 2 Average % inhibition at 100 nm” value in experiment [2] is on record as 63.1%. The molecule further had an IC50 in experiment [3] of less than 100 nM.

For the origin of these results see patent US8828985B2, “Carbamate and urea inhibitors of 11-beta-hydroxysteroid dehydrogenase 1” (Vitae Pharmaceuticals, Inc., priority 2008, dated 2014).
